Columns and labels:
[1] = target: human β2 adrenergic receptor (Homo sapiens, UniProt P07550); assay: Whole-cell cAMP Flashplate assay with a lung epithelial cell line (BEAS-2B) endogenously expressing human β2 adrenergic receptor (Assay Test Procedure E); assay type: cell-based; details: BEAS-2B human lung epithelial cells, endogenous receptor
Description: For the determination of agonist potencies and efficacies (intrinsic activities) in a cell line expressing endogenous levels of the β2 adrenergic receptor, a human lung epithelial cell line (BEAS-2B) was used (ATCC CRL-9609, American Type Culture Collection, Manassas, Va.) (January B, et al., British Journal of Pharmacology, 1998, 123, 4, 701-11). Cells were grown to 75-90% confluency in complete, serum-free medium (LHC-9 MEDIUM containing Epinephrine and Retinoic Acid, cat #181-500, Biosource International, Camarillo, Calif.). […] On the day of the assay, cells were rinsed with PBS, lifted by scraping with 5 mM EDTA in PBS, and counted. […] Plates were sealed, incubated over night at 4° C. and counted the next morning in a Topcount scintillation counter (Packard BioScience Co., Meriden, Conn.). The amount of cAMP produced per mL of reaction was calculated based on the counts observed for samples and cAMP standards, as described in the manufacturer's user manual. Data were analyzed by nonlinear regression analysis with the GraphPad Prism Software package (GraphPad Software, Inc., San Diego, Calif.) using the 4-parameter model for sigmoidal dose-response. […]

[2] = target: T1, M3 muscarinic receptor (hM3) (Homo sapiens, UniProt P20309); assay: Radioligand binding assay for muscarinic receptors (Assay Test Procedure B); details: [3H]-NMS displacement, CHO cell membranes expressing hM3
T1 construct: expressed in transfected cells; host or cells: CHO cells, membranes
Description: CHO cell lines stably expressing cloned human hM1, hM2, hM3 and hM4 muscarinic receptor subtypes, respectively, were grown to near confluency in HAM's F-12 media supplemented with 10% FBS and 250 μg/mL Geneticin. The cells were grown in a 5% CO2, 37° C. incubator and lifted with 2 mM EDTA in dPBS. Cells were collected by 5 minute centrifugation at 650×g, and cell pellets were either stored frozen at −80° C. or membranes were prepared immediately for use. For membrane preparation, cell pellets were resuspended in lysis buffer and homogenized with a Polytron PT-2100 tissue disrupter (Kinematica AG; 20 seconds×2 bursts). Crude membranes were centrifuged at 40,000×g for 15 minutes at 4° C. […] The protein concentration of the membrane suspension was determined by the method described in Lowry et al., 1951, Journal of Biochemistry, 193, 265. […]
Radioligand binding assays for cloned human muscarinic receptors were performed in 96-well microtiter plates in a total assay volume of 100 μL. […] Filter plates were rinsed three times with wash buffer (10 mM HEPES) to remove unbound radioactivity. […] The plates were then counted in a PerkinElmer Topcount liquid scintillation counter (PerkinElmer Inc., Wellesley, Mass.). Binding data were analyzed by nonlinear regression analysis with the GraphPad Prism Software package (GraphPad Software, Inc., San Diego, Calif.) using the one-site competition model. […]

T1 sequence (P20309 whole entry): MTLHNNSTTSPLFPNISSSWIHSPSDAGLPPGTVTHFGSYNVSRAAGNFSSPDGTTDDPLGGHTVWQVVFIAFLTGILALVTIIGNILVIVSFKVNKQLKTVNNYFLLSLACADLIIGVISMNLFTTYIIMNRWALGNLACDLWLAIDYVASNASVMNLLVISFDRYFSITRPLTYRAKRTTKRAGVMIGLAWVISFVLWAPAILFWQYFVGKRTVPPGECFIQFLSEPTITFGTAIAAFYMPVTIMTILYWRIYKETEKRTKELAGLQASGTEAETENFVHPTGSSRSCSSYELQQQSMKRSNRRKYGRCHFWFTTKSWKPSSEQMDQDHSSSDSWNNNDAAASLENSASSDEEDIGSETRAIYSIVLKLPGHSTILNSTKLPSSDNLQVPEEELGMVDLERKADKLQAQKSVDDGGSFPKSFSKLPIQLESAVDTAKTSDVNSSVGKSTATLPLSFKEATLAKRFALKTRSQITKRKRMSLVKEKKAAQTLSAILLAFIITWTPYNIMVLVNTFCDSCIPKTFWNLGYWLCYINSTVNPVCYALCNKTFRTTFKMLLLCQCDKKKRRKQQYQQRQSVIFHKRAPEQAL
Sequence of human β2 adrenergic receptor (P07550 whole entry): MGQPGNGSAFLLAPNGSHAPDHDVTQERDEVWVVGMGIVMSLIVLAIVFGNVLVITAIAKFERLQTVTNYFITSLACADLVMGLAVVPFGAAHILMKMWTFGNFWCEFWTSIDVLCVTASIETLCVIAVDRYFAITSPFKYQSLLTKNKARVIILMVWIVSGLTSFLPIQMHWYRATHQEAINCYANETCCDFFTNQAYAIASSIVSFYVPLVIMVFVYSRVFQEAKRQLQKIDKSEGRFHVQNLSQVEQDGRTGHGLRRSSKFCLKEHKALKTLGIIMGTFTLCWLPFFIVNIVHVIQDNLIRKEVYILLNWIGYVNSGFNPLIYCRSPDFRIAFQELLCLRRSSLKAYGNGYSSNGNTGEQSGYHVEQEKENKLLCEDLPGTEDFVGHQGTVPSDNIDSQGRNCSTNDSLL

EC50 [1]: < 10 nM | Ki [2]: < 50 nM
SMILES: NC(=O)C(c1ccccc1)(c1ccccc1)[C@@H]1CCN(CCCCCCCCCNCC(O)c2ccc(O)c3[nH]c(=O)ccc23)C1 (mixture of isomers) [Example 1, 2-((S)-1-{9-[2-Hydroxy-2-(8-hydroxy-2-oxo-1,2-dihydroquinolin-5-yl)ethylamino]-nonyl}pyrrolidin-3-yl)-2,2-diphenylacetamide]
